For orientation: pIC50 means the negative decadic logarithm of the IC50, by convention in mol/L.

pIC50: −log10 of the molar value.

Common to all, as to assay type: biochemical
Assay [1] deals with JAK2: Recombinant human kinase domain (Homo sapiens, UniProt O60674). Nature of the assay: JAK2 kinase inhibition, radioactive end-point assay. The note with it: 1 nM JAK2, ATP 1.5 uM, peptide 50 uM, 20 minutes, room temperature; read-out: IC50 h-jak2-sf21-c. The source says: (§1) Determination of IC50 of Janus Kinase (JAK) Inhibition: […]
Sequence of JAK2: Recombinant human kinase domain (O60674 849-1124 limits assumed): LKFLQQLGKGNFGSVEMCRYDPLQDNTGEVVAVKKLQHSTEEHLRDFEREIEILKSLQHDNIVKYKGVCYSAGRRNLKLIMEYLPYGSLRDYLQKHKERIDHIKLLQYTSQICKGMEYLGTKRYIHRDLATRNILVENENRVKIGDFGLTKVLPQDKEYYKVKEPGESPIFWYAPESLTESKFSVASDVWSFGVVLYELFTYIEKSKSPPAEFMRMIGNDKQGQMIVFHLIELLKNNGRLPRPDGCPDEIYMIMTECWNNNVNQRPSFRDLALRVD
In assay [2] the target is T1, recombinant human SYK360-635 (Homo sapiens, UniProt P43405).
T1 construct: truncated construct of Spleen Tyrosine Kinase aa 360-635; made in house
Nature of the assay: SYK kinase assay, 33P ATP incorporation into biotinylated peptide. The note with it: 0.5 nM SYK aa 360-635, ATP 20 μM, peptide 5 μM, 15 min at 30° C.; read-out: IC50 h-syk (360-635)-baculovirus-c. The procedure: SYK Assay Information Determination of IC50 of Spleen Tyrosine Kinase (SYK) Inhibition:
SYK kinase assay is a standard kinase assay adapted to a 96 well plate format. This assay is performed in 96-well format for IC50 determination with 8 samples which represented 10 half log dilutions and a 40 μL reaction volume. The assay measures the incorporation of radiolabeled ^33P γATP into an N-terminally biotinylated peptide substrate, derived from naturally occurring phosphoacceptor consensus sequence (Biotin-11aa DY*E). Phosphorylated products were detected upon termination of reactions with EDTA and the addition of Streptavidin coated beads. […]
The unbound radionucleotides were washed under vacuum with 3×250 μL 2M NaCl; 2×250 μL 2M NaCl+1% phosphoric acid; 1×250 μL H2O. After the last wash membrane/plates were transferred to an adaptor plate, heat dried for 15 min at 60° C., and 50 μL scintillation cocktail was added to each well and 4 h later the amount of radioactivity was counted in a top counter.
The percent inhibition was calculated based on the uninhibited enzyme rate: % Inhibition=100/(1+(IC50/Inhibitor cone)^n) • The IC50 was calculated using a non-linear curve fit with XLfit software (ID Business Solution Ltd., Guilford, Surrey, UK).

The target of assay [3] is JAK3: Recombinant human kinase domain (Homo sapiens, UniProt P52333). Nature of the assay: JAK3 kinase inhibition, radioactive end-point assay. The note with it: 0.5 nM or 0.2 nM JAK3, ATP 1.5 uM, peptide 50 uM, 20 minutes, room temperature; read-out: IC50 h-jak3-sf21-c.
Sequence of JAK3: Recombinant human kinase domain (P52333 822-1111 limits assumed): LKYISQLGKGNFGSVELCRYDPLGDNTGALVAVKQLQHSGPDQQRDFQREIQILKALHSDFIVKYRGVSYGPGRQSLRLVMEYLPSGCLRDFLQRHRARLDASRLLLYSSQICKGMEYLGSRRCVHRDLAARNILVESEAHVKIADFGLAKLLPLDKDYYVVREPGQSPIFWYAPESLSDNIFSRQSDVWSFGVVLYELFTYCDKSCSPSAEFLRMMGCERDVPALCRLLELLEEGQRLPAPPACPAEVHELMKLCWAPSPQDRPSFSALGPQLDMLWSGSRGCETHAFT
Description: as §1

Assay [4] has as its target JAK1: Recombinant human kinase domain (Homo sapiens, UniProt P23458). Nature of the assay: JAK1 kinase inhibition, radioactive end-point assay. The note with it: 5 nM JAK1, ATP 10 uM, peptide 50 uM, 40 minutes, room temperature; read-out: IC50 h-jak1-sf21-c.
Description: as §1

Sequence of JAK1: Recombinant human kinase domain (P23458 875-1153 limits assumed): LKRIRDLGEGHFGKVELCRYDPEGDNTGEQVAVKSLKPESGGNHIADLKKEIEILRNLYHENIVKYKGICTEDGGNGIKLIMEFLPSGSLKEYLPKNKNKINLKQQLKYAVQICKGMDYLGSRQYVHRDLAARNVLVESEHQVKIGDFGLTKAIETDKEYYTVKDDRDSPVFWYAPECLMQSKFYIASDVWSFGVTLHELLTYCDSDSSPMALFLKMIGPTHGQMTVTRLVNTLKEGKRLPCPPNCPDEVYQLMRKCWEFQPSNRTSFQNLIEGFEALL

In the case of `COc1cc(-c2cnc3[nH]cc(C(=O)C(C)(C)C)c3n2)cc(OC)c1OC` [Example I-12, 2,2-Dimethyl-1-[2-(3,4,5-trimethoxy-phenyl)-5H-pyrrolo[2,3-b]pyrazin-7-yl]-propan-1-one], the results for the pIC50 in assay [1], in assay [2] and in assay [3] were 6.34, 6.50 and 7.25, respectively.

Turning to `CC(C)(C)C(=O)c1c[nH]c2ncc(-c3cccc(N4CCCC4)c3)nc12` [Example I-64, 2,2-Dimethyl-1-[2-(3-pyrrolidin-1-yl-phenyl)-5H-pyrrolo[2,3-b]pyrazin-7-yl]-propan-1-one], the pIC50 in assay [1] was 5.46; in assay [2], 5.88; in assay [3], 7.62; in assay [4] it was 5.68.

As for `COc1cc(-c2cnc3[nH]cc(C(=O)NCC(C)OC)c3n2)cc(OC)c1OC` (centres unmarked) [Example I-82, 2-(3,4,5-Trimethoxy-phenyl)-5H-pyrrolo[2,3-b]pyrazine-7-carboxylic acid (2-methoxy-propyl)-amide], the pIC50 was 7.97 in assay [1], 7.44 in assay [2], 8.34 in assay [3] and 7.05 in assay [4].

For the compound `COc1cc(-c2cnc3[nH]cc(C(=O)C4(C)CCCCC4)c3n2)cc(OC)c1OC` [Example I-117, (1-Methyl-cyclohexyl)-[2-(3,4,5-trimethoxy-phenyl)-5H-pyrrolo[2,3-b]pyrazin-7-yl]-methanone], the pIC50 in assay [1] is 6.97; in assay [2], 6.79; in assay [3], 8.17.

The values above are taken from patent publication US8008298B2, “Pyrrolopyrazine kinase inhibitors” (Roche Palo Alto, priority 2008, dated 2011).
